One test addresses T1, GST-SHP-1.SH2(C) (Mus musculus, UniProt P29351).
T1 construct: recombinant fusion proteins corresponding to the isolated N- and C-SH2 domains of SHP-1; made in house; host or cells: E. coli DH5α
T1 sequence (P29351 110-213 limits assumed): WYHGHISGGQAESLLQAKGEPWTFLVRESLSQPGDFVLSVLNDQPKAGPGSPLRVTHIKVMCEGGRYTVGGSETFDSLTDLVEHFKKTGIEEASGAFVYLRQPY
Put plainly: Surface plasmon resonance (BIAcore), SHP-1 C-SH2 domain. The format is binding, murine. The note with it: phosphorylated peptide immobilized; 5 μl/min. As for the experimental part: (§1) Fusion proteins and surface plasmon resonance analysis. Surface plasmon resonance (SPR) measurements were performed on a BIAcore™ (Pharmacia). The GST-SHP-1.SH2(NC), GST-SHP-1.SH2(N), GST-SHP-1.SH2(C), GST-SHIP.SH2 fusion proteins generated from the murine phosphatase cDNA, were purified from DH5α lysates. Briefly, overnight culture at 37° C. in LB medium containing 50 μg/ml ampicillin was diluted 1/10 in fresh medium, and incubated until the absorbance at 600 nm reaches 1-2. At that point, IPTG was added (1 mM), and incubation continued for an additional 4 hours at 37° C. After centrifugation, bacteria pellet was resuspended in TENGN buffer (50 mM Tris pH 8, 1 mM EDTA, 10% glycerol, 1% NP40, 1 mM DTT, 1 mM PMSF, 10 μg/ml aprotinin and 10 μg/ml leupeptine). Bacteria were lysed by sonication. After centrifugation, supernatant was incubated with Glutathione-Sepharose 4B beads (Pharmacia) overnight at 4° C. with slow shaking. After 3 washes with 50 mM Tris pH 8, elution of the fusion protein was carried out using 50 mM Tris pH 8 supplemented with 10 mM reduced glutathione. Before their use in BIAcore™ experiments, fusion proteins were dialyzed in HBS buffer (10 mM HEPES, 150 mM NaCl, 3.4 mM EDTA). Protein purity was assessed by 12.5% SDS-PAGE, and Coomassie blue staining. The running buffer used in all BIAcore™ experiments consisted of HBS buffer supplemented with 0.05% surfactant P20. For preparation of microchips coated with phosphorylated peptides, immunopure streptavidine (Sigma) was first immobilized onto CMS-sensorchip. Then, biotinylated peptides were injected, and their binding to streptavidine-coated microchips was assessed using anti-phosphotyrosine 4G10 mAb (UHI).
(§2) The measurement of phosphorylated p58.2 peptide binding to GST-SHP-1.SH2(N) and GST-SHP-1.SH2(C) fusion proteins was at a constant 5 μl/min flow rate. In the representative experiment of which results are reported in the above table I, 130 and 160 RU of respectively p58.2.1 and p58.2.2 peptides were immobilized on microchips. The regeneration was performed using HBS buffer supplemented with 0.03% SDS. Results are expressed as corrected resonance units (CRU) corresponding to the raw RU values subtracted from background RU value due to the injection medium. […] koff and kon were calculated from three independent measurements using the BLAevaluation 2.0 software. Kd was calculated from koff/kon.

For another test, the target named is T2, GST-SHP-1.SH2(N) (Mus musculus, UniProt P29351).
T2 construct: recombinant fusion proteins corresponding to the isolated N- and C-SH2 domains of SHP-1; made in house; host or cells: E. coli DH5α
T2 sequence (P29351 4-100 limits assumed): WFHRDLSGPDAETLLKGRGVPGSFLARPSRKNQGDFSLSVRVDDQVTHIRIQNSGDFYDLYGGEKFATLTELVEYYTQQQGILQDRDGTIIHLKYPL
Put plainly: Surface plasmon resonance (BIAcore), SHP-1 N-SH2 domain. It counts as binding, murine. Particulars: for koff / kon: phosphorylated peptide immobilized, 5 μl/min. As for the experimental part:
as §1, §2

Test [1] has as its target T3, GST-SHIP.SH2 fusion protein (murine, UniProt Q9ES52 8-104).
T3 construct: also called SH2 domain of SHIP; not shown: Glutathione S-transferase (GST) fusion partner
T3 sequence (looked up): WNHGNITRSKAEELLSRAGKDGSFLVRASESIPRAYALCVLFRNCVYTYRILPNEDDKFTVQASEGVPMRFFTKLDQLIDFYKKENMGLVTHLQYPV
Description: SPR (BIAcore) with recombinant GST fusion protein. As for the experimental part: as §1, with “Before their use in BIAcore™ experiments, fusion proteins were dialyzed in HBS buffer (10 mM HEPES, 150 mM NaCl, 3.4 mM EDTA).” left out, “The running buffer used in all BIAcore™ experiments consisted of HBS buffer supplemented with 0.05% surfactant P20. For preparation of microchips coated with phosphorylated peptides, immunopure streptavidine (Sigma) was first immobilized onto CMS-sensorchip.” left out

Test [2] deals with T4, SHIP polyinositol phosphatase from RBL-2H3 cell lysates (rat (cell line RBL-2H3), UniProt P97573 1-1190, limits assumed).
T4 construct: Detected by immunoblot with anti-SHIP antiserum
T4 sequence (looked up): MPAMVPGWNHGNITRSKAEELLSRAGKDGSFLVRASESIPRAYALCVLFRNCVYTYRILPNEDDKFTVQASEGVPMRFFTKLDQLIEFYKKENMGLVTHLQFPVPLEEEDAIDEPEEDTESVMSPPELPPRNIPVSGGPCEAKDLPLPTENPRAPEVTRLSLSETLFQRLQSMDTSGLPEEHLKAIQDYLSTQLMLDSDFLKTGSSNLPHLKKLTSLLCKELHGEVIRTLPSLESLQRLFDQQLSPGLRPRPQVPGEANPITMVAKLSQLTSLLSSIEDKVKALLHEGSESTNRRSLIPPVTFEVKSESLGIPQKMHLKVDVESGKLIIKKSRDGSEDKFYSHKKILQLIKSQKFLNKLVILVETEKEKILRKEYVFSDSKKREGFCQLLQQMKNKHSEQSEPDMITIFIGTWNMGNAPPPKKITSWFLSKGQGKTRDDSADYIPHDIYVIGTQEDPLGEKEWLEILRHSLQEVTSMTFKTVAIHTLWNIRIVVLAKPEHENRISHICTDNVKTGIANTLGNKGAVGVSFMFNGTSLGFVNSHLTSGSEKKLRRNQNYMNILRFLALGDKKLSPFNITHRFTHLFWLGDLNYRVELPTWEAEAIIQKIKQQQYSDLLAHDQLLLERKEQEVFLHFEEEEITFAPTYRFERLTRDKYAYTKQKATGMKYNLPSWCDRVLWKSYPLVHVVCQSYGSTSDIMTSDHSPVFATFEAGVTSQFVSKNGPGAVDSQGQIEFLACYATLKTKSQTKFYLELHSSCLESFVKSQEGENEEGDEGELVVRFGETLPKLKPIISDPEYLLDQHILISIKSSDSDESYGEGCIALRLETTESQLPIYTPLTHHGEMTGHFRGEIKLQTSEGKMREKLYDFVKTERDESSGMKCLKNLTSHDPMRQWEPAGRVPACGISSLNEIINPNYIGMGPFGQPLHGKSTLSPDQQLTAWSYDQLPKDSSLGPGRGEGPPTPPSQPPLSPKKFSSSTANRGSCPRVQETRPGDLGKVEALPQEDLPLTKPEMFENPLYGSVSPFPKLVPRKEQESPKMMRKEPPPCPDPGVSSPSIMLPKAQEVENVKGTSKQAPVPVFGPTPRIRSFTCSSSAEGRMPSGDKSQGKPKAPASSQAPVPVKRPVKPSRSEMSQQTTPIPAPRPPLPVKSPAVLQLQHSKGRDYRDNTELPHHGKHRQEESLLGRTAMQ
Put plainly: cell lysate adsorption to peptide beads, immunoblot (RBL-2H3), FIG. 15A. As for the experimental part: In an attempt to characterize the function of these putative ITIMs, cell lysates were incubated with phosphorylated and nonphosphorylated synthetic peptides corresponding to the N-terminal and the C-terminal I/VxYxxL stretches present in NKG2A intracytoplasmic domain. Cell lysates absorbed to peptides were then assayed by immunoblotting for the presence of the phosphatases known to interact with phosphorylated ITIMs, i.e. the protein tyrosine phosphatases SHP-1 and SHP-2, as well as the polyinositol phosphate phosphatase, SHIP. In parallel, lysates adsorption were performed using control peptides corresponding to ITIMs present in Ig-like ITIM bearing receptors such as human KIRs (p58.2/CD158b, a receptor for HLA-Cw3) and mouse FcγRIIB, as well as in mouse lectin-like ITIM-bearing receptor, such as Ly-49A.
As shown in FIG. 15A (lanes 1 and 2), both N- and C-terminal I/VxYxxL stretches present in NKG2A associate with SHP-1 and SHP-2 in vitro, but no binding to SHIP was detected. Similar patterns of association were obtained using the phosphorylated ITIM peptides of […] and p58.2 KIR (FIG. 15A, lanes 3 to 5). In contrast, FcγRIIB phosphorylated ITIM peptides also associate with SHIP (FIG. 15A, lane 6). No association of phosphatases with nonphosphorylated peptides corresponding to FcγRIIB (FIG. 15A, lane 7) and NKG2A N- and C-terminal I/VxYxxL stretches was detected. When nonphosphorylated and phosphorylated peptides were used to adsorb lysates prepared from ³⁵S methionine/cysteine-labeled cells, only two bands around 64 and 68 kDa selectively associate with both phosphorylated NKG2A N- and C-terminal I/VxYxxL stretches, as compared to nonphosphorylated ones (FIG. 15B). The 64 and 68 kDa proteins which bind to phosphorylated NKG2A peptides correspond to SHP-1 and SHP-2 apparent molecular weight respectively, supporting the immunoblotting results. Therefore, our results define the two NKG2A I/VxYxxL stretches as ITIMs which appear to function similarly to other ITIMs present in inhibitory receptors for MHC class I molecules, i.e. KIRs and Ly-49 molecules. Using recombinant soluble tandem SH2 domains of SHP-1 and SHP-2, we confirmed by surface plasmon resonance that both NKG2A ITIM phosphopeptides directly associate with the SH2 domains of SHP-1 and SHP-2, but not with the SH2 domain of SHIP (FIG. 16).

Where a SMILES comes first, the peptide text is derived from it. Where no end group is shown, it is not given here. [ ]: non-standard residue; d: D form. The star is where a group is joined. Biotin = O=C1N[C@H]2[C@H](CS[C@H]2CCCCC(=O)*)N1; pY = N[C@@H](Cc1ccc(OP(=O)(O)O)cc1)C(=O)O

As to `CC(C)C[C@H](NC(=O)[C@H](CCC(N)=O)NC(=O)[C@H](C)NC(=O)[C@H](Cc1ccc(OP(=O)(O)O)cc1)NC(=O)[C@@H](NC(=O)[C@@H](NC(=O)[C@H](CCC(=O)O)NC(=O)[C@H](CCC(N)=O)NC(=O)[C@@H]1CCCN1C(=O)[C@H](CC(=O)O)NC(=O)[C@H](CCC(N)=O)NC(=O)[C@H](CCC(=O)O)NC(=O)[C@H](CC(=O)O)NC(=O)CCCC[C@@H]1SC[C@@H]2NC(=O)N[C@@H]21)C(C)C)[C@@H](C)O)C(=O)N[C@@H](CC(N)=O)C(=O)N[C@@H](Cc1c[nH]cn1)C(=O)O` [p58.2.1, DEQDPQEVTY303AQLNH] (HELM PEPTIDE1{[O=C1N[C@H]2[C@H](CS[C@H]2CCCCC(=O)[*:2])N1].D.E.Q.D.P.Q.E.V.T.[O=C([C@H](Cc1ccc(OP(=O)(O)O)cc1)N[*:1])[*:2]].A.Q.L.N.H}$$$$V2.0), on GST-SHP-1.SH2(C), the koff was found to be 0.0007 s⁻¹ and the kon was 5000 M⁻¹ s⁻¹. Further, on GST-SHP-1.SH2(N), the Kd was found to be 423 nM, the off-rate (koff) turned out to be 0.042 s⁻¹ and the kon is 100000 M⁻¹ s⁻¹.
The like results for `CC[C@H](C)[C@H](NC(=O)[C@H](CC(=O)O)NC(=O)[C@@H](NC(=O)[C@@H]1CCCN1C(=O)[C@@H]1CCCN1C(=O)[C@@H](NC(=O)[C@H](CCCCN)NC(=O)[C@@H]1CCCN1C(=O)[C@H](CCCNC(=N)N)NC(=O)[C@H](CCC(N)=O)NC(=O)[C@H](CO)NC(=O)[C@@H]1CCCN1C(=O)[C@H](CCCNC(=N)N)NC(=O)CCCC[C@@H]1SC[C@@H]2NC(=O)N[C@@H]21)[C@@H](C)O)[C@@H](C)O)C(=O)N[C@H](C(=O)N[C@H](C(=O)N[C@@H](Cc1ccc(OP(=O)(O)O)cc1)C(=O)N[C@H](C(=O)N[C@@H](CCC(=O)O)C(=O)N[C@@H](CC(C)C)C(=O)N1CCC[C@H]1C(=O)N[C@@H](CC(N)=O)C(=O)N[C@@H](C)C(=O)N[C@@H](CCC(=O)O)C(=O)N1CCC[C@H]1C(=O)O)[C@@H](C)O)C(C)C)[C@@H](C)CC` [p58.2.2, RP SQ RPKTPPTDIIVY333TELPNAEP] (HELM PEPTIDE1{[O=C1N[C@H]2[C@H](CS[C@H]2CCCCC(=O)[*:2])N1].R.P.S.Q.R.P.K.T.P.P.T.D.I.I.V.[O=C([C@H](Cc1ccc(OP(=O)(O)O)cc1)N[*:1])[*:2]].T.E.L.P.N.A.E.P}$$$$V2.0) were, in that order, 0.0003 s⁻¹, 600 M⁻¹ s⁻¹, 3160 nM, 0.025 s⁻¹ and 8000 M⁻¹ s⁻¹.
For Biotin-RPSQRPKTPPTDIIV[pY]TELPNAEP (also called p58.183.2; p58.133.2) [phosphorylated p58.2.2 peptide (C-terminal KIR ITIM)], the binding result in test [1] and in test [2] was “no binding” each time.

B1: phosphorylated p58.2.1 peptide (N-terminal KIR ITIM) (peptide)
peptide: Biotin-DEQDPQEVT[pY]AQLNH
notes: also called p58.183.1; phosphorylated N-terminal KIR ITIM peptide
B1: the binding result in test [1] and in test [2] was “no binding” in each case.
